Assay results as given in patent US9890147B2 (BAYER PHARMA AKTIENGESELLSCHAFT, priority 2012, dated 2018).

Biological target: T1, BRD4 (BD1) (Homo sapiens, UniProt O60885)
T1 construct: with relatively long constructs also being possible, preferably amino acids 44-168; made in house; host or cells: E. coli
Assay: Binding assay BRD4/acetylated peptide H4 (TR-FRET protein-protein interaction assay)
Source text: Binding Assay BRD4/Acetylated Peptide H4 (“PRO”)
To assess the BRD4 binding of the substances described in the present application, their ability to inhibit the interaction between BRD4 (BD1) and acetylated histone H4 in a dose-dependent manner was quantified (Filippakopoulos et al., Cell, 2012, 149: 214-231).
For this purpose, use was made of a time-resolved fluorescence resonance energy transfer (TR-FRET) assay which measured binding between N-terminally His6-tagged BRD4 (BD1) (amino acids 67-152, with relatively long constructs also being possible, preferably amino acids 44-168) and a synthetic acetylated histone H4 (Ac—H4) peptide having the sequence GRGK(Ac)GGK(Ac)GLGK(Ac)GGAK(Ac)RHGSGSK-biotin. The recombinant BRD4 protein-produced according to Filippakopoulos et al., Cell, 2012, 149: 214-231—was expressed in E. coli and purified by (Ni-NTA) affinity and (Sephadex G-75) size exclusion chromatography. The Ac—H4 peptide is commercially available, for example from Biosyntan (Berlin, Germany). In a typical assay, 11 different concentrations of each substance (0.1 nM, 0.33 nM, 1.1 nM, 3.8 nM, 13 nM, 44 nM, 0.15 μM, 0.51 μM, 1.7 μM, 5.9 μM and 20 μM) were measured in duplicate on the same microtitre plate. To this end, 100-fold concentrated solutions in DMSO were prepared by serial dilution (1:3.4) of a 2 mM stock solution in a clear 384-well microtitre platte (Greiner Bio-One, Frickenhausen, Germany) 50 nl of these were transferred into a black test plate (Greiner Bio-One, Frickenhausen, Germany). The test was started by addition of 2 μl of a 2.5-fold concentrated BRD4 solution (final concentration usually 10 nM in the […] of the reaction volume) in aqueous assay buffer [50 mM HEPES pH 7.5. 50 mM sodium chloride (NaCl), 0.25 mM CHAPS and 0.05% serum albumin (BSA)] to the substances in the test plate. This was followed by a 10-minute incubation step at 22° C. to pre-equilibrate putative complexes between BRD4 and the substances.
The mixture was then incubated in the dark for one hour at 22° C. and then for at least 3 hours and at most overnight at 4° C. Formation of BRD4/Ac—H4 complexes was determined by measuring the resonance energy transfer from the streptavidin-Eu cryptate to the anti-6His-XL665 antibody in the reaction. To this end, the fluorescence emission was measured at 620 nm and 665 nm after excitation at 330-350 nm in a TR-FRET measuring device, for example a Rubystar or Pherastar (both from BMG Lab Technologies, Offenburg, Germany) or a Viewlux (Perkin-Elmer). The ratio of the emission at 665 nm and at […] was used as an indicator for the amount of BRD4/Ac—H4 complexes formed.
The data obtained (ratios) were normalized, with 0% inhibition corresponding to the mean of the measured values of a set of controls (usually 32 data points) comprising all reagents. Here, 50 nl of DMSO (100%) were used instead of test substances. An inhibition of 100% corresponded to the mean of the measured values of a set of controls (usually 32 data points) comprising all reagents except for BRD4. The IC50 was determined by regression analysis based on a 4-parameter equation (minimum, maximum, IC50, Hill; Y=Max+(Min−Max)/(1+(X/IC 50)^Hill)).

SMILES | IC50 [nM]
CNC(=O)N1N=C(c2ccc(Cl)cc2)c2ccc(N3CCOCC3)cc2CC1C (racemic) [Example 233, (±)-1-(4-chlorophenyl)-N,4-dimethyl-7-(morpholin-4-yl)-4,5-dihydro-3H-2,3-benzodiazepine-3-carboxamide] | 3450
CNC(=O)N1N=C(c2ccc(N3CCN(C)C(=O)C3)cc2)c2ccc(N3CCN(C)C(=O)C3)cc2CC1C (racemic) [Example 238, (±)-N,4-dimethyl-7-(4-methyl-3-oxopiperazin-1-yl)-1-[4-(4-methyl-3-oxopiperazin-1-yl)phenyl]-4,5-dihydro-3H-2,3-benzodiazepine-3-carboxamide] | 130
CCC1Cc2cc(OC)c(OC)cc2C(c2ccc(N3CCCC3=O)cc2)=NN1C(=O)NC (racemic) [Example 225, (±)-4-ethyl-7,8-dimethoxy-N-methyl-1-[4-(2-oxopyrrolidin-1-yl)phenyl]-4,5-dihydro-3H-2,3-benzodiazepine-3-carboxamide] | 1720
CNC(=O)N1N=C(c2ccc(-c3ccccc3C(=O)O)cc2)c2cc(OC)c(OC)cc2CC1C (racemic) [Example 6, (±)-4′-{7,8-dimethoxy-4-methyl-3-[(methylamino)carbonyl]-4,5-dihydro-3H-2,3-benzodiazepin-1-yl}biphenyl-2-carboxylic acid] | 910
CCC(=O)N1N=C(c2ccc(N3CCN(C)CC3)cc2)c2cc(OC)c(OC)cc2CC1C (racemic) [Example 255, (±)-7,8-dimethoxy-4-methyl-1-[4-(4-methylpiperazin-1-yl)phenyl]-3-(1-oxopropyl)-4,5-dihydro-3H-2,3-benzodiazepine] | 240
COc1cc2c(cc1OC)C(c1ccc(N3CCN(C)CC3)cc1)=NN(C(=O)C1CC1)C(C)C2 (racemic) [Example 256, (±)-3-(cyclopropylcarbonyl)-7,8-dimethoxy-4-methyl-1-[4-(4-methylpiperazin-1-yl)phenyl]-4,5-dihydro-3H-2,3-benzodiazepine] | 610
CNC(=O)N1N=C(c2ccc(Cl)cc2)c2ccc(N3CCOC3=O)cc2C[C@@H]1C [Example 230.1, (4S)-1-(4-chlorophenyl)-N,4-dimethyl-7-(2-oxo-1,3-oxazolidin-3-yl)-4,5-dihydro-3H-2,3-benzodiazepine-3-carboxamide] | 330
CNC(=O)N1N=C(c2ccc(-c3ccc(C(F)(F)F)nc3)cc2)c2cc(OC)c(OC)cc2C[C@H]1C [Example 50.2, (4R)-7,8-dimethoxy-N,4-dimethyl-1-{4-[6-(trifluoromethyl)pyridin-3-yl]phenyl}-4,5-dihydro-3H-2,3-benzodiazepine-3-carboxamide] | 18900
CCC1Cc2cc(OC)c(OC)cc2C(c2ccc(N3CCN(C)CC3)cc2)=NN1C(=O)NC (racemic) [Example 201, (±)-4-ethyl-7,8-dimethoxy-N-methyl-1-[4-(4-methylpiperazin-1-yl)phenyl]-4,5-dihydro-3H-2,3-benzodiazepine-3-carboxamide] | 1370
CNC(=O)N1N=C(c2ccc(Cl)cc2)c2ccc(-c3c(C)noc3C)cc2CC1C (racemic) [Example 242, (±)-1-(4-chlorophenyl)-7-(3,5-dimethyl-1,2-oxazol-4-yl)-N,4-dimethyl-4,5-dihydro-3H-2,3-benzodiazepine-3-carboxamide] | 2690
CNC(=O)N1N=C(c2ccc(Cl)cc2)c2ccc(-c3ccc(F)cc3)cc2CC1C (racemic) [Example 239, (±)-1-(4-chlorophenyl)-7-(4-fluorophenyl)-N,4-dimethyl-4,5-dihydro-3H-2,3-benzodiazepine-3-carboxamide] | 11400
CNC(=O)N1N=C(c2ccc(N3CCN(S(C)(=O)=O)CC3)cc2)c2cc(Cl)c(OC(F)(F)F)cc2CC1C (racemic) [Example 214, (±)-8-chloro-N,4-dimethyl-1-{4-[4-(methylsulphonyl)piperazin-1-yl]phenyl}-7-(trifluoromethoxy)-4,5-dihydro-3H-2,3-benzodiazepine-3-carboxamide] | 1230
CCC1Cc2cc(OC)c(OC)cc2C(c2ccc(N3CCOC3=O)cc2)=NN1C(=O)NC (racemic) [Example 228, (±)-4-ethyl-7,8-dimethoxy-N-methyl-1-[4-(2-oxo-1,3-oxazolidin-3-yl)phenyl]-4,5-dihydro-3H-2,3-benzodiazepine-3-carboxamide] | 1690
CCC1Cc2cc(OC)c(OC)cc2C(c2ccc(N3CCCCC3=O)cc2)=NN1C(=O)NC (racemic) [Example 227, (±)-4-ethyl-7,8-dimethoxy-N-methyl-1-[4-(2-oxopiperidin-1-yl)phenyl]-4,5-dihydro-3H-2,3-benzodiazepine-3-carboxamide] | 6280
CNC(=O)N1N=C(c2ccc(N3C[C@@H](C)N[C@@H](C)C3)cc2)c2cc(OC)c(OC)cc2C[C@@H]1C [Example 198, (4S)-1-{4-[(3R,5S)-3,5-dimethylpiperazin-1-yl]phenyl}-7,8-dimethoxy-N,4-dimethyl-4,5-dihydro-3H-2,3-benzodiazepine-3-carboxamide] | 5300
CNC(=O)N1N=C(c2ccc(Cl)cc2)c2ccc(-c3ccc(O)nc3)cc2CC1C (racemic) [Example 241, (±)-1-(4-chlorophenyl)-7-(6-hydroxypyridin-3-yl)-N,4-dimethyl-4,5-dihydro-3H-2,3-benzodiazepine-3-carboxamide] | 2560
CCNC(=O)N1N=C(c2ccc(N3CCN(C)CC3)cc2)c2cc(OC)c(OC)cc2C[C@@H]1C [Example 261.1, (4S)—N-Ethyl-7,8-dimethoxy-4-methyl-1-[4-(4-methylpiperazin-1-yl)phenyl]-4,5-dihydro-3H-2,3-benzodiazepine-3-carboxamide] | 1220
CNC(=O)N1N=C(c2ccc(N3CC[C@H](O)C3)cc2)c2cc(OC)c(OC)cc2C[C@@H]1C [Example 190.1, (4S)-1-{4-[(3S)-3-hydroxypyrrolidin-1-yl]phenyl}-7,8-dimethoxy-N,4-dimethyl-4,5-dihydro-3H-2,3-benzodiazepine-3-carboxamide] | 30
CCNC(=O)N1N=C(c2ccc(N3CCN(C)CC3)cc2)c2cc(OC)c(OC)cc2CC1C (racemic) [Example 261, (±)-N-Ethyl-7,8-dimethoxy-4-methyl-1-[4-(4-methylpiperazin-1-yl)phenyl]-4,5-dihydro-3H-2,3-benzodiazepine-3-carboxamide] | 1490
CNC(=O)N1N=C(c2ccc(N3CCN(C)CC3)cc2)c2cc(OC(F)(F)F)ccc2C[C@H]1C [Example 250.1, (4R)-N,4-dimethyl-1-[4-(4-methyl-1-piperazinyl)phenyl]-8-(trifluoromethoxy)-4,5-dihydro-3H-2,3-benzodiazepine-3-carboxamide] | 9890
CNC(=O)C1CCN(c2ccc(C3=NN(C(=O)NC)[C@H](C)Cc4cc(OC)c(OC)cc43)cc2)CC1 [Example 189.2, (4R)-7,8-dimethoxy-N,4-dimethyl-1-{4-[4-(methylcarbamoyl)piperidin-1-yl]phenyl}-4,5-dihydro-3H-2,3-benzodiazepine-3-carboxamide] | 17400
CNC(=O)N1N=C(c2ccc(N3CCC(OC)CC3)cc2)c2cc(OC)c(OC)cc2C[C@H]1C [Example 179.1, (4R)-7,8-dimethoxy-1-[4-(4-methoxypiperidin-1-yl)phenyl]-N,4-dimethyl-4,5-dihydro-3H-2,3-benzodiazepine-3-carboxamide] | 3770
CNC(=O)N1N=C(c2ccc(N3CCN(C)CC3)cc2)c2ccc(N3CCN(C)CC3)cc2CC1C (racemic) [Example 237, (±)-N,4-dimethyl-7-(4-methylpiperazin-1-yl)-1-[4-(4-methylpiperazin-1-yl)phenyl]-4,5-dihydro-3H-2,3-benzodiazepine-3-carboxamide] | 1070
CNC(=O)N1N=C(c2ccc(-c3c(C)nn(C)c3C)cc2)c2cc(OC(F)(F)F)ccc2C[C@H]1C [Example 249.2, (4R)-N,4-dimethyl-8-(trifluoromethoxy)-1-[4-(1,3,5-trimethyl-1H-pyrazol-4-yl)phenyl]-4,5-dihydro-3H-2,3-benzodiazepine-3-carboxamide] | 2340
